The source of these data is patent US4788209A, “Antifungal 2-anilinothiazolines” (Merrell Dow Pharmaceuticals Inc., priority 1987, dated 1988).

Values after ≈ are worked out from the molar mass of the structure shown. Read-outs that look alike come from different tables or passages of the source.

Assay [1] concerns Candida albicans. Briefly: Single dose therapy of rat vaginitis (vaginal candidiasis) induced by two challenge levels. The conditions noted are these: 0.2 ml of 10% solution intravaginally, 24 hours after treatment. The class given is in vivo. Here is the method:
To compare the activity of N-(4-hexylphenyl)-4,5-dihydro-2-thiazolamine with that of the well established antifungal agents miconazole and Clotrimazole, vaginal candidiasis was induced in rats.
Groups of 6 female, ovariectomized rats, 180-200 gram weight, were pretreated for 2 successive days with 0.5 mg of progesterone and 0.5 mg of estradiol administered subcutaneously to induce oestrus. Forty-eight hours later rats were infected intravaginally on 2 successive days with Candida albicans cells. Challenge levels of 1×10^7 and 1×10^6 cells were employed. Seventy-two hours after infection, the rats were treated topically (intravaginally) with 0.2 ml of a 10% solution of test compound in a vehicle consisting of the following: cetyl alcohol, 3.5 gm; glycerol monostearate polyethyleneglycol 100, 4.0 gm; diglycol stearate, 3.0 gm; polyethyleneglycol 400, 18.75 gm; and purified water, 18.75 gm.
Twenty-four hours after treatment, vaginal washings were collected, diluted and mixed with Mycosel agar in petri dishes. The dishes were incubated for 48 hours and colonies were counted to determine the surviving number of yeast cells per vaginal washing.

The test system of assay [2] is Torulopsis glabrata. Briefly: Minimal inhibitory concentration against yeasts (Mycophil agar, Steers-Foltz apparatus). The assay is classed as cell-based. The note with it: Nakaseomyces glabratus; 24 hours at 37° C. The protocol:
(§1) The compounds of the present invention show activity against pathogenic fungi in vitro and in vivo. The activity of N-(4-hexylphenyl)-4,5-dihydro-2-thiazolamine against various yeast fungi commonly responsible for diseases of humans and animals is illustrated in Table I.
(§2) The compound was prepared in 20 ml aliquots of Mycophil agar at concentrations of 1.5 μM to 250 μM. The agar surfaces were innoculated with approximately 1×10^5 yeast cells/ml using a Steers-Foltz apparatus. The plates were incubated for 24 hours at 37° C. and examined for yeast growth. The minimal inhibitory concentration (MIC) is reported as the lowest concentration of compound that inhibited growth.

Assay [3] has as its system Candida tropicalis. The description is as above. The assay is classed as cell-based. The note with it: 24 hours at 37° C. Here is the method:
as §1, §2

Assay [4] concerns Candida parapsilosis. Described as above. The class given is cell-based. The conditions noted are these: Lodderomyces parapsilosis; 24 hours at 37° C. Here is the method:
as §1, §2

For assay [5], the system named is Candida albicans. Described as above. The note with it: 24 hours at 37° C. The class given is cell-based. Here is the method: as §1, §2
Assay [6] has as its system Candida pseudotropicalis. The description is as above. The assay is classed as cell-based. The note with it: Kluyveromyces marxianus; 24 hours at 37° C. Here is the method: as §1, §2

As to `Clc1ccc(COC(Cn2ccnc2)c2ccc(Cl)cc2Cl)c(Cl)c1` (stereo not shown) [Miconazole, miconazole], the “% Killed” value was 88% in assay [1] (challenge 1 × 10^6 cells) and 90% in assay [1] (challenge 1 × 10^7 cells). In addition, the “Cells/ml Lavage” value is listed as 7 × 10^3 Cells/ml in assay [1] (challenge 1 × 10^6 cells) and 2 × 10^4 Cells/ml in assay [1] (challenge 1 × 10^7 cells).
For `Clc1ccccc1C(c1ccccc1)(c1ccccc1)n1ccnc1` [Clotrimazole], the entries for the “% Killed” value in assay [1] (challenge 1 × 10^6 cells) and in assay [1] (challenge 1 × 10^7 cells) were 83% and 75%, respectively. Besides, the “Cells/ml Lavage” value in assay [1] (challenge 1 × 10^6 cells) is recorded as 1 × 10^4 Cells/ml; in assay [1] (challenge 1 × 10^7 cells) it was 5 × 10^4 Cells/ml.
As to `CCCCCCc1ccc(NC2=NCCS2)cc1` [N-(4-Hexylphenyl)-4,5-dihydro-2-thiazolamine], the MIC in assay [2] was found to be 8 µg/mL (≈ 30.5 µM); in assay [3] (Candida tropicalis, strain 4, read-out: MIC) it was 8 µg/mL (≈ 30.5 µM); in assay [3] (strain 20), 8 µg/mL (≈ 30.5 µM); in assay [4] it was 4 µg/mL (≈ 15.2 µM); in assay [5] (Candida albicans, strain 1, read-out: MIC), 8 µg/mL (≈ 30.5 µM); in assay [5] (strain 8) it was 8 µg/mL (≈ 30.5 µM). Moreover, the MIC in assay [5] (strain 10) came out at 8 µg/mL (≈ 30.5 µM); in assay [5] (strain 14) it was 8 µg/mL (≈ 30.5 µM); in assay [5] (strain 16), 8 µg/mL (≈ 30.5 µM); in assay [6], 2 µg/mL (≈ 7.62 µM). Besides, the figures for the “% Killed” value in assay [1] (challenge 1 × 10^6 cells) and in assay [1] (challenge 1 × 10^7 cells) were 97% and 98%, respectively. Also, the figures for the “Cells/ml Lavage” value in assay [1] (challenge 1 × 10^6 cells) and in assay [1] (challenge 1 × 10^7 cells) were 2 × 10^3 Cells/ml and 5 × 10^3 Cells/ml, respectively.
